The assay concerns the target T1, Met kinase domain (GST fusion protein) (Homo sapiens, UniProt P08581).
T1 construct: Purified GST fusion protein containing the Met kinase domain
Description: Met transphosphorylation assay (ELISA, poly(glu-tyr) substrate).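 Note: Cell-free ELISA with plate-bound poly(Glu:Tyr 4:1) phosphorylated by GST-fused Met kinase domain plus ATP and Mn2+, phosphotyrosine detected by anti-phosphotyrosine antibody with HRP and ABTS read-out.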 It is filed as biochemical. The note with it: plain numbers in column Met IC50 (μM) of Table 2; read-out: Met IC50. (An ELISA detects its analyte on a solid surface through an enzyme-linked reagent.)
T1 sequence (P08581 1078-1345 limits assumed): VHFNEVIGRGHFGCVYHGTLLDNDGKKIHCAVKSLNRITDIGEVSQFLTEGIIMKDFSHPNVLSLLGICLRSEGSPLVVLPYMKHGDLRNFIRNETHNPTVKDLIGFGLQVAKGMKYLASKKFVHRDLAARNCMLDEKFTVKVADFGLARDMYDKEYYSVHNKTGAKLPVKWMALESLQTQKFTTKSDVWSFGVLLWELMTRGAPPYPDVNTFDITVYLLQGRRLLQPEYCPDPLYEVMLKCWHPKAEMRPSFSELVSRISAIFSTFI
In the case of `CC(Oc1cc(C#CCNC(=O)N2CCC[C@H]2CN2CCCC2)cnc1N)c1c(Cl)ccc(F)c1Cl` (stereo partly drawn) [Example I-412, (S)-2-Pyrrolidin-1-ylmethyl-pyrrolidine-1-carboxylic acid (3-{6-amino-5-[1-(2,6-dichloro-3-fluoro-phenyl)-ethoxy]-pyridin-3-yl}-prop-2-ynyl)-amide], the IC50 is 0.067 µM.
On to `CC(Oc1cc(C#CCNC(=O)N2CCN(C)CC2)cnc1N)c1c(Cl)ccc(F)c1Cl` (stereo not drawn) [Example I-413, 4-Methyl-piperazine-1-carboxylic acid (3-{6-amino-5-[1-(2,6-dichloro-3-fluoro-phenyl)-ethoxy]-pyridin-3-yl}-prop-2-ynyl)-amide], for which the IC50 was 0.056 µM.
On to `CC(Oc1cc(C#CCNC(=O)N2CCC(N3CCCC3)CC2)cnc1N)c1c(Cl)ccc(F)c1Cl` (stereo not drawn) [Example I-414, 4-Pyrrolidin-1-yl-piperidine-1-carboxylic acid (3-{6-amino-5-[1-(2,6-dichloro-3-fluoro-phenyl)-ethoxy]-pyridin-3-yl}-prop-2-ynyl)-amide], for which the concentration for half-maximal inhibition (IC50) was 0.058 µM.
Consider `CC(Oc1cc(C#CCNC(=O)N2C[C@@H](C)N[C@@H](C)C2)cnc1N)c1c(Cl)ccc(F)c1Cl` (stereo partly drawn) [Example I-415, (3R,5S)-3,5-Dimethyl-piperazine-1-carboxylic acid (3-{6-amino-5-[1-(2,6-dichloro-3-fluoro-phenyl)-ethoxy]-pyridin-3-yl}-prop-2-ynyl)-amide], for which the concentration for half-maximal inhibition (IC50) came out at 0.063 µM.
With `CC(Oc1cc(C#CCNC(=O)NC2CCN(C)CC2)cnc1N)c1c(Cl)ccc(F)c1Cl` (stereo not drawn) [Example I-416, 1-(3-{6-Amino-5-[1-(2,6-dichloro-3-fluoro-phenyl)-ethoxy]-pyridin-3-yl}-prop-2-ynyl)-3-(1-methyl-piperidin-4-yl)-urea], the IC50 worked out at 0.051 µM.
For `CC(Oc1cc(C#CCNC(=O)NCCCN2CCCC2)cnc1N)c1c(Cl)ccc(F)c1Cl` (stereo not drawn) [Example I-417, 1-(3-{6-Amino-5-[1-(2,6-dichloro-3-fluoro-phenyl)-ethoxy]-pyridin-3-yl}-prop-2-ynyl)-3-(3-pyrrolidin-1-yl-propyl)-urea], the IC50 turned out to be 0.062 µM.
As to `CC(Oc1cc(C#CCNC(=O)NCCN2CCCC2)cnc1N)c1c(Cl)ccc(F)c1Cl` (stereo not drawn) [Example I-418, 1-(3-{6-Amino-5-[1-(2,6-dichloro-3-fluoro-phenyl)-ethoxy]-pyridin-3-yl}-prop-2-ynyl)-3-(2-pyrrolidin-1-yl-ethyl)-urea], the IC50 was 0.052 µM.
Turning to `CC(Oc1cc(C#CCNC(=O)NCCN2CCOCC2)cnc1N)c1c(Cl)ccc(F)c1Cl` (stereo not drawn) [Example I-419], the half-maximal inhibitory concentration (IC50) came to 0.055 µM.
Take `CC(Oc1cc(C#CCNC(=O)NCCCN2CCOCC2)cnc1N)c1c(Cl)ccc(F)c1Cl` (stereo not drawn) [Example I-420, 1-(3-{6-Amino-5-[1-(2,6-dichloro-3-fluoro-phenyl)-ethoxy]-pyridin-3-yl}-prop-2-ynyl)-3-(3-morpholin-4-yl-propyl)-urea]: the IC50 turned out to be 0.064 µM.
Consider `CC(Oc1cc(C#CCNC(=O)N2CCC[C@@H]2CN2CCCC2)cnc1N)c1c(Cl)ccc(F)c1Cl` (stereo partly drawn) [Example I-421], for which the IC50 was found to be 0.071 µM.
With `CC(Oc1cc(C#CCN(C)C)cnc1N)c1c(Cl)ccc(F)c1Cl` (stereo not drawn) [Example I-422, 3-[1-(2,6-Dichloro-3-fluoro-phenyl)-ethoxy]-5-(3-dimethylamino-prop-1-ynyl)-pyridin-2-ylamine], the IC50 was determined as 0.071 µM.
In the case of `CC(Oc1cc(C#CCNC(N)=O)cnc1N)c1c(Cl)ccc(F)c1Cl` (stereo not drawn) [Example I-423, (3-{6-Amino-5-[1-(2,6-dichloro-3-fluoro-phenyl)-pnlethoxy]-pyridin-3-yl}-prop-2-ynyl)-area], the half-maximal inhibitory concentration (IC50) was 0.062 µM.
For `CC(Oc1cc(C#CCNC(=O)CN2CCCCC2)cnc1N)c1c(Cl)ccc(F)c1Cl` (stereo not drawn) [Example I-424, N-(3-{6-Amino-5-[1-(2,6-dichloro-3-fluoro-phenyl)-ethoxy]-pyridin-3-yl}-prop-2-ynyl)-2-piperidin-1- -yl-acetamide], the concentration for half-maximal inhibition (IC50) was 0.016 µM.
In the case of `CC(Oc1cc(C#CCNC(=O)CN2CCOCC2)cnc1N)c1c(Cl)ccc(F)c1Cl` (stereo not drawn) [Example I-425, N-(3-{6-Amino-5-[1-(2,6-dichloro-3-fluoro-phenyl)-ethoxy]-pyridin-3-yl}-prop-2-ynyl)-2-morpholin-4-yl-acetamide], the IC50 was 0.027 µM.
The value for `CC(Oc1cc(C#CCNC(=O)CN2CCCC2)cnc1N)c1c(Cl)ccc(F)c1Cl` (stereo not drawn) [Example I-426, N-(3-{8-Amino-5-[1-(2,6-dichloro-3-fluoro-phenyl)-ethoxy]-pyridin-3-yl}-prop-2-ynyl)-2-pyrrolidin-1-yl-acetamide] was 0.0091 µM; that for `CC(Oc1cc(C#CCNC(=O)CN2CC[C@@H](O)C2)cnc1N)c1c(Cl)ccc(F)c1Cl` (stereo partly drawn) [Example I-427, N-(3-{6-Amino-5-[1-(2,6-dichloro-3-fluoro-phenyl)-ethoxy]-pyridin-3-yl}-prop-2-ynyl)-2-((R)-3-hydroxy-pyrrolidin-1-yl)-acetamide] was 0.011 µM.
On to `CC(Oc1cc(C#CCNC(=O)CN2CCC(O)CC2)cnc1N)c1c(Cl)ccc(F)c1Cl` (stereo not drawn) [Example I-428, N-(3-{6-Amino-5-[1-(2,6-dichloro-3-fluoro-phenyl)-ethoxy]-pyridin-3-yl}-prop-2-ynyl)-2-(4-hydroxy-piperidin-1-yl)-acetamide], for which the IC50 was 0.012 µM.
The value for `CC(Oc1cc(C#CCNC(=O)CN(C)C)cnc1N)c1c(Cl)ccc(F)c1Cl` (stereo not drawn) [Example I-429, N-(3-{6-Amino-5-[1-(2,6-dichloro-3-fluoro-phenyl)-ethoxy]-pyridin-3-yl}-prop-2-ynyl)-2-dimethylamino-acetamide] was 0.022 µM; that for `CCN(CC)CC(=O)NCC#Cc1cnc(N)c(OC(C)c2c(Cl)ccc(F)c2Cl)c1` (stereo not drawn) [Example I-430, N-(3-{6-Amino-5-[1-(2,6-dichloro-3-fluoro-phenyl)-ethoxy]-pyridin-3-yl}-prop-2-ynyl)-2-diethylamino-acetamide] was 0.013 µM; that for `CC(=O)N1CCN(CC(=O)NCC#Cc2cnc(N)c(OC(C)c3c(Cl)ccc(F)c3Cl)c2)CC1` (stereo not drawn) [Example I-431, 2-(4-Acetyl-piperazin-1-yl)-N-(3-{6-amino-5-[1-(2,6-dichloro-3-fluoro-phenyl)-ethoxy]pyridin-3-yl}-prop-2-ynyl)-acetamide] was 0.027 µM.
For the compound `Nc1ncc(-c2ccccn2)cc1OCc1ccccc1` [Example I-488, 5′-Benzyloxy-[2,3′]bipyridinyl-6′-ylamine], the half-inhibitory concentration (IC50) is greater than 20 µM.
For the compound `Nc1ncc(-c2cncnc2)cc1OCc1ccccc1` [Example I-490, 3-Benzyloxy-5-pyrimidin-5-yl-pyridin-2-ylamine], the IC50 was greater than 20 µM.
The value for `Nc1ccc(-c2cnc(N)c(OCc3ccccc3)c2)cn1` [Example I-491, 5-Benzyloxy-[3,3′]bipyridinyl-6,6′-diamine] was greater than 20 µM; that for `Nc1ncc(-c2ccccn2)cc1OCc1ccccc1Cl` [Example I-492, 5′-(2-Chloro-benzyloxy)-[2,3′]bipyridinyl-6′-ylamine] was 8.24 µM; that for `Nc1ncc(-c2cccnc2)cc1OCc1ccccc1Cl` [Example I-493] was 4.6 µM.
The value for `Nc1ncc(-c2cncnc2)cc1OCc1ccccc1Cl` [Example I-494, 3-(2-Chloro-benzyloxy)-5-pyrimidin-5-yl-pyridin-2-ylamine] was 19.3 µM.
For `Nc1ccc(-c2cnc(N)c(OCc3ccccc3Cl)c2)cn1` [Example I-495, 5-(2-Chloro-benzyloxy)-[3,3′]bipyridinyl-6,6′-diamine], the 50% inhibitory concentration (IC50) was determined as 4.31 µM.

As a reminder, the IC50 is the concentration that inhibits the measured activity by half.

For the origin of these results see patent US20050009840A1 (SUGEN, INC., priority 2003, published 2005).
